Laboratory results as given in patent publication US20240252477A1, “NLRP3 INFLAMMASOME-INHIBITING COMPOUNDS AND THE USE THEREOF” (UNIVERSITA' DEGLI STUDI DI TORINO (60%), priority 2021, published 2024).
Each block holds one compound with its values, some of them ahead of it.

How the values were obtained:
Cytotoxicity (MTT assay) = assay type: cell-based, human; details: human; THP-1 cells, 72 hours' incubation
Description: (§1) The THP-1 cells were seeded in a 96-well plate (15.000 cells/well) and incubated with the test compounds at four different concentrations (0.1, 1, 10 and 100 μM), operating in triplicate. The cells were placed in an incubator at 37° C., with 5% CO2, and cell viability was measured after 72 hours' incubation, using the MTT assay. This is a colorimetric assay, based on conversion of water-soluble 3-(4,5-dimethylthiazol-2-yl)-2,5-diphenyltetrazolium bromide (MTT; Sigma-Aldrich) to a violet-coloured insoluble formazan, by the mitochondrial dehydrogenase present in the live cells. The formazan is solubilised in acidified isopropanol, and the concentration is determined by measuring absorbance with a microplate reader (Victor X4—Ensight, PerkinElmer) at λ=570 nm. Viability was expressed as a percentage of the viability of the control cells, which were either untreated or treated with the carrier. The IC50 was calculated with the Graph Pad Prism software.

NLRP3 inflammasome [1] = molecular target: T1, NLRP3 inflammasome (Homo sapiens, UniProt Q96P20); assay: NLRP3-dependent pyroptosis (LDH release) in PMA-differentiated THP-1 cells stimulated with LPS/ATP; assay type: cell-based; details: compounds at 10 μM for 1 hour, differentiated THP-1, LPS 10 μg/mL 4 hours, ATP 1.5 hours; for inhibition at 10 µM: read-out: Pyroptosis inhibition (% ± SEM)
T1 construct: The THP-1 cells were differentiated into macrophages by treating them with PMA 50 nM; endogenous in cells; host or cells: THP-1 (human monocytic leukaemia line), PMA-differentiated, primed with LPS, triggered with ATP
Description: (§2) THP-1 cells, a monocytic human cell line derived from the peripheral blood of a patient suffering from acute monocytic leukaemia (www.atcc.org), were cultured in RPMI 1640 medium (Aurogene, Rome, Italy), with the addition of foetal bovine serum (10%, Aurogene), L-glutamine (2 mM, Aurogene), penicillin (100 IU/ml, Aurogene) and streptomycin ([…], Aurogene). The medium was changed every 2-3 days, and the cells were maintained in an incubator at 37° C., with 5% CO2, and with suitable humidity.
The cells were seeded in 48-well plates (90.000 cells/well), and differentiated with phorbol 12-myristate 13-acetate (PMA—50 nM, 24 hours; Sigma-Aldrich). On the next day, the differentiated THP-1s were washed twice with the balanced saline solution phosphate-buffered saline (PBS), and stimulated with lipopolysaccharide (LPS) (10 μg/mL, 4 hours; Sigma-Aldrich), prepared in serum-free medium. After 4 hours the cells were incubated with the compounds at the concentration of 10 μM for 1 hour, operating in triplicate; INF176 and INF177 were tested at three different concentrations: […]. Finally, the cells were stimulated with ATP 5 mm for 1.5 hours. The supernatants were then harvested for the subsequent analyses.
LDH release into the supernatant obtained as described above was quantified using the CytoTox 96 nonradioactive cytotoxicity assay (Promega Corporation, Madison, […], USA), a colorimetric assay wherein LDH activity is measured with an NADH-dependent enzymatic reaction:
Briefly, an equal volume of CytoTox Reagent was added to the supernatant and, after 30 minutes' incubation, the reaction was stopped by adding the stop solution. The formazan concentration was determined by measuring absorbance, using a microplate reader (Victor X4—EnSight, PerkinElmer, Waltham, MA, USA), at λ=490 nm. Cell death was expressed according to the manufacturer's instructions.
The compound INF176 was tested to measure its ability to inhibit NLRP3-dependent cell pyroptosis in human macrophages, using the experimental protocol previously published [Cocco et al. 2017].
The THP-1 cells were differentiated into macrophages by treating them with PMA 50 nM (24 hours) and then with LPS (10 μg/mL) for 4 hours. The cells were treated with the compound (10 μM) for 1 hour. Pyroptosis was induced by treatment with ATP 5 mm. After 90 minutes, cell death was evaluated by measuring the LDH level in the cell supernatant using the CytoTox 96 Non-Radioactive Cytotoxicity Assay (Promega Corporation, Madison, […], USA).

[2] = Stability in PBS pH 7.4 with excess glutathione or cysteamine (HPLC); assay type: physicochemical; details: 100 μM, PBS pH 7.4, 37° C.
Description: The compound INF177 was incubated at the concentration of 100 μM in PBS pH 7.4 (0.1% DMSO) at 37° C., in the absence and in the presence of excess glutathione or cysteamine (10×). The reaction mixture underwent repeated HPLC analyses over 24 hours.
The HPLC analysis was conducted with an HP 1200 chromatography system (Agilent Technologies, Palo Alto, CA, USA) consisting of an integrated quaternary pump (model G1311A), degasser (model G1322A), UV MWD detector (model G1365D) and fluorescence detector (model G1321A). The data were processed with the HP ChemStation system program (Agilent Technologies).
The analyses were conducted using the ZORBAX SB-Phenyl column (250×4.6 mm, 5 μm; Agilent) as stationary phase and CH3CN/H2O (+0.1% HCOOH), 70/30 (v/v), flow rate=1.0 mL/min, as mobile phase, injecting 20 μL of sample (Rheodyne, Cotati, CA); the chromatograms were acquired at the wavelengths of 234 and 250 nm.

SAMP8 mice = assay: SAMP8 mice, model of neurodegenerative disorders (Morris test, brain markers); assay type: in vivo; details: SAMP8, 50 mg/kg/day p.o., 2 months
Description: Compound INF176 was tested in vivo in an animal model of mice with spontaneous accelerated senescence (SAMP8), used as a model of neurodegenerative disorders such as mild cognitive impairment (MCI), which in most cases evolve to Alzheimer's disease (AD).

SAMP8 animals = assay: SAMP8 animals: colon transit and colon IL-1β; assay type: in vivo, mice
NLRP3 inflammasome [3] = molecular target: T1, NLRP3 inflammasome; assay: IL-1β release (ELISA) from differentiated THP-1 cells stimulated with LPS/ATP; assay type: cell-based; details: at the maximum concentration tested (FIG. 1B)
Description: as §2
The cells were seeded in 48-well plates (90.000 cells/well), and differentiated with phorbol 12-myristate 13-acetate (PMA—50 nM, 24 hours; Sigma-Aldrich). On the next day, the differentiated THP-1s were washed twice with the balanced saline solution phosphate-buffered saline (PBS), and stimulated with lipopolysaccharide (LPS) (10 μg/mL, 4 hours; Sigma-Aldrich), prepared in serum-free medium. […]
IL-1β release into the supernatant of cells treated as described above was determined with the Human IL-1 beta Uncoated ELISA kit (Invitrogen, Waltham, MA, USA), according to the manufacturer's instructions. […]
The interleukin levels were determined by measuring absorbance at X=450 nm, using a microplate reader (Victor X4—EnSight).

[4] = system: murine model of colitis induced by dextran sodium sulphate (DSS); assay: Colitis induced by dextran sodium sulphate (DSS), murine model; assay type: in vivo; details: 25 mg/kg/day and 50 mg/kg/day p.o.
Description: In particular, oral administration (p.o.) of INF176 at the doses of 25 mg/kg/day and 50 mg/kg/day gave rise to an improvement in the systemic and tissue parameters associated with colitis (FIGS. 2-3).

colon of SAMP8 animals = assay: Colon contractions elicited by electrical stimuli (in vitro), SAMP8; parameters: species or system mice
THP-1 cells = assay: Cytotoxicity (MTT assay); assay type: cell-based, human
Description: as §1

IL-1beta = molecular target: T2, IL-1beta (Homo sapiens, UniProt P01584); details: cited from earlier work
T2 construct: host or cells: patients (clinical trial)

T1 sequence (Q96P20 whole entry): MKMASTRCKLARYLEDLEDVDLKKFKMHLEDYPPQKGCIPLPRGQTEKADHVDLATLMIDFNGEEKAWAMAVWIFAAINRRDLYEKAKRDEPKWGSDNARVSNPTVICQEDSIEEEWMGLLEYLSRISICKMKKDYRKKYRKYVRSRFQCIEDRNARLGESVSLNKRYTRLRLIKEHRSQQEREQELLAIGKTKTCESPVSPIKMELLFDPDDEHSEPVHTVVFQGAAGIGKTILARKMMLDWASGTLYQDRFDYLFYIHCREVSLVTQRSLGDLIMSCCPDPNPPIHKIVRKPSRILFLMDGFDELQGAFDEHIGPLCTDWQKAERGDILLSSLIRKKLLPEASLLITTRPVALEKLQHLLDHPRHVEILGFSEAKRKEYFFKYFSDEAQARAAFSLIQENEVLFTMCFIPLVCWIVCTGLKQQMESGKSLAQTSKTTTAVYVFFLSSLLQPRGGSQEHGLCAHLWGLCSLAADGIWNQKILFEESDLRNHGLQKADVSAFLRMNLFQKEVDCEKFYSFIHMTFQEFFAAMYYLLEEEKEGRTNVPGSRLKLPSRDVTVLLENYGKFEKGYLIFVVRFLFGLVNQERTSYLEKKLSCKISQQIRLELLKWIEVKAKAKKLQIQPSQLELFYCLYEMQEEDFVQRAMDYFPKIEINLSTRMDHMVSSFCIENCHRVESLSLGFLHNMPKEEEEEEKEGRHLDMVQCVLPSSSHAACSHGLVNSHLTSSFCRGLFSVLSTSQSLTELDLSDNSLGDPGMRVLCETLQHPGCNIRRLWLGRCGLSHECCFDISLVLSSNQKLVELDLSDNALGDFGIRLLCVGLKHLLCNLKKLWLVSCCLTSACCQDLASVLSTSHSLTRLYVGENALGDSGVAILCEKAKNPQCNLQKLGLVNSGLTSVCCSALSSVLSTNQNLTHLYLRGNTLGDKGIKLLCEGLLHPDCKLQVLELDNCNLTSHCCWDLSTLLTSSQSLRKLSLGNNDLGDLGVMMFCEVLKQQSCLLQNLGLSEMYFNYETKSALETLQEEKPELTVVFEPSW

- inhibition at 10 µM (NLRP3 inflammasome [1]): 20.1 ± 9.8%
- reactivity towards glutathione or cysteamine ([2]; 10× excess thiol, over 24 hours): no appreciable reactivity was observed
- % compound remaining ([2]; cysteamine 10×, after 2.5 hours): > 98%
- % compound remaining ([2]; glutathione 10×, after 4 hours): > 98%
- % compound remaining ([2]; glutathione or cysteamine 10×, 24 hours): ≥ 96%
Compound: O=C(O)C1CCCN(C(=O)/C(=C/c2ccccc2Cl)CSc2ccccc2)C1 (centres unmarked) [INF177, (Z)-1-(3-(2-chlorophenyl)-2-((phenylthio)methyl)acryloyl)piperidine-3-carboxylic acid]
- IC50 at 72 h (Cytotoxicity (MTT assay)): > 100 µM

- Pyroptosis inhibition (% ± SEM) (NLRP3 inflammasome [1]): <10%
Compound: (Z)-3-(2-chlorophenyl)-2-((phenylthio)methyl)acrylic acid [INF80]
- IC50 (THP-1 cells): 92.8 ± 1.6 µM

- inhibition at 10 µM (NLRP3 inflammasome [1]): 13.8 ± 7.1%
Compound: CCOC(=O)C1CCN(C(=O)/C(=C/c2ccccc2Cl)CSc2ccccc2)CC1 [INF180, ethyl (Z)-1-(3-(2-chlorophenyl)-2-((phenylthio)methyl)acryloyl)piperidine-4-carboxylate]
- IC50 at 72 h (Cytotoxicity (MTT assay)): > 100 µM

More lines, now with the values behind:

Compound: CCOC(=O)C1CCCN(C(=O)/C(=C/c2ccccc2Cl)CSc2ccccc2)C1 (centres unmarked) [INF176, ethyl (Z)-1-(3-(2-chlorophenyl)-2-((phenylthio)methyl)acryloyl)piperidine-3-carboxylate]
- IC50 at 72 h (Cytotoxicity (MTT assay)): 94.2 ± 6.9 µM
- cognitive decline (Morris test: escape latency, crossings in quadrant, entries into quadrant) (SAMP8 mice): significantly counteracts cognitive decline
- expression of p-tau protein in brain tissues (SAMP8 mice): significantly reduces expression of p-tau protein
- inhibition at 10 µM (NLRP3 inflammasome [1]): 45.2 ± 7.2%
- colon transit (pellets expelled in 1 hour) (SAMP8 animals; SAMP8, 50 mg/kg (FIG. 5A)): improves slowing of colon transit
- IL-1β levels in the colon (SAMP8 animals; SAMP8, 50 mg/kg (FIG. 6)): reduces the increase in IL-1β levels
- inhibition of IL-1beta release from human macrophages (NLRP3 inflammasome [3]): 35±1.2%
- body weight (weight loss) [4]: counteracts weight loss
- disease activity index (DAI) [4]: significantly reduces
- interleukin-1beta levels in colon tissues [4]: significantly reduces
- myeloperoxidase levels in colon tissues [4]: significantly reduces
- spleen weight [4]: counteracts weight loss and increased spleen weight
- cholinergic colon contractions (colon of SAMP8 animals; SAMP8, 50 mg/kg (FIG. 5)): significantly enhancing
- tachykininergic colon contractions (colon of SAMP8 animals; SAMP8, 50 mg/kg (FIG. 5)): significantly enhancing
- colon contractions elicited by electrical stimuli (colon of SAMP8 animals; SAMP8, 50 mg/kg (FIG. 5B)): significantly improves

Compound: NC(=O)C1CCCN(C(=O)/C(=C/c2ccccc2Cl)CSc2ccccc2)C1 (centres unmarked) [INF219, (Z)-1-(3-(2-chlorophenyl)-2-((phenylthio)methyl)acryloyl)piperidine-3-carboxamide]
- IC50 at 72 h (Cytotoxicity (MTT assay)): > 100 µM
- inhibition at 10 µM (NLRP3 inflammasome [1]): 13 ± 8.2%
- melting point: 60.5 to 61.4 °C

Compound: CCOC(=O)/C(=C/c1ccccc1Cl)CS(=O)(=O)c1ccccc1 [INF51, ethyl (Z)-3-(2-chlorophenyl)-2-((phenylsulphonyl)methyl)acrylate]
- IC50 at 72 h (Cytotoxicity (MTT assay)): 20.1 ± 14.3 µM
- inhibition at 10 µM (NLRP3 inflammasome [1]): 38.9 ± 4.5%

Compound: CCOC(=O)C1CCN(C(=O)C(CSC2CCCCC2)Cc2ccccc2Cl)CC1 (centres unmarked) [INF193, ethyl 1-(2-(2-chlorobenzyl)-3-(cyclohexylthio)propanoyl)piperidine-4-carboxylate]
- IC50 at 72 h (Cytotoxicity (MTT assay)): 77.5 ± 7.3 µM
- inhibition at 10 µM (NLRP3 inflammasome [1]): < 10%

Compound: CCOC(=O)C(Cc1ccccc1Cl)C[S+]([O-])c1ccccc1 (centres unmarked) [INF48, ethyl 2-(2-chlorobenzyl)-3-(phenylsulphinyl)propanoate]
- IC50 at 72 h (Cytotoxicity (MTT assay)): > 35.1 µM
- inhibition at 10 µM (NLRP3 inflammasome [1]): 33.6 ± 1.2%

Compound: CCOC(=O)C(Cc1ccccc1Cl)CN1CCCC1 (centres unmarked) [INF61, ethyl 2-(2-chlorobenzyl)-3-(pyrrolidine-1-yl)propanoate]
- IC50 at 72 h (Cytotoxicity (MTT assay)): > 100 µM
- inhibition at 10 µM (NLRP3 inflammasome [1]): 41.7 ± 5.2%

Compound: canakinumab
- reduction in lung cancer deaths (IL-1beta; after treatment with canakinumab): 77%
- change in mortality due to cardiovascular events (IL-1beta; patients at cardiovascular risk): −31%
